Data from patent US5652222A, “Selective inhibition of leukemic cell proliferation by bcr-abl antisense oligonucleotides” (Temple University-of The Commonwealth System of Higher …, priority 1993, dated 1997).

What was measured:
Format in all cases: cell-based, human
[1] = system: 1:1 mix of normal MNC and CML blast crisis cells; assay: Morphology (Giemsa staining) of cells from residual colonies
Excerpt: (§1) Normal bone marrow mononuclear cells (MNC) were obtained by aspiration from consenting volunteers and enriched for hematopoietic progenitors as previously reported by numerous investigators (Zamecnick et al., Proc. Natl. Acad. Sci. U.S.A. 83, 4143-4147 (1986); Caracciolo et al., J. Clin. Invest. 85, 55-61 (1990)). In brief, marrow cells were subjected to Ficoll-Hypaque density gradient sedimentation and then depleted of adherent monocyte-macrophage and T-lymphocytes by adherence to plastic Petri dishes and rosetting with neuraminidase-treated sheep red blood cells, respectively. Philadelphia chromosome-positive blast cells were isolated by Ficoll-Hypaque density gradient sedimentation from a CML patient in blast crisis (L-6 type junction). […] The residual non-blast cells had the morphological appearance of small lymphocytes. 25,000 MNC and 25,000 CML blast cells were combined and incubated with bcr-abl breakpoint-Specific antisense oligomer (SEQ ID NO:3) (40 μg/ml at h 0; 20 μg/ml 18 hours later) or with a 4 nucleotide mismatch bcr-abl antisense oligomer (SEQ ID NO:2) (40 μg/ml at 0 h; 20 μg/ml 18 hours later) or left untreated. […] At the end of the incubation period colonies were counted. […]

[2] = system: CML blast crisis cells (L-6 type junction); assay: CFU-L colony formation of CML blast crisis cells (Example 3); conditions: Table 3; 40 μg/ml at 0 h, 20 μg/ml 18 h later; 12 days; mean ± SD; control 806 ± 70
Excerpt: Normal bone marrow mononuclear cells (MNC) were obtained by aspiration from consenting volunteers and enriched for hematopoietic progenitors as previously reported by numerous investigators (Zamecnick et al., Proc. Natl. Acad. Sci. U.S.A. 83, 4143-4147 (1986); Caracciolo et al., J. Clin. Invest. 85, 55-61 (1990)). In brief, marrow cells were subjected to Ficoll-Hypaque density gradient sedimentation and then depleted of adherent monocyte-macrophage and T-lymphocytes by adherence to plastic Petri dishes and rosetting with neuraminidase-treated sheep red blood cells, respectively. Philadelphia chromosome-positive blast cells were isolated by Ficoll-Hypaque density gradient sedimentation from a CML patient in blast crisis (L-6 type junction). […] The residual non-blast cells had the morphological appearance of small lymphocytes. 25,000 MNC and 25,000 CML blast cells were combined and incubated with bcr-abl breakpoint-Specific antisense oligomer (SEQ ID NO:3) (40 μg/ml at h 0; 20 μg/ml 18 hours later) or with a 4 nucleotide mismatch bcr-abl antisense oligomer (SEQ ID NO:2) (40 μg/ml at 0 h; 20 μg/ml 18 hours later) or left untreated. Four hours after the second addition of oligonucleotides to the cultures, cells were seeded into duplicate methylcellulose dishes containing IL-3 (20 U/ml) and GM-CSF (5 ng/ml) and allowed to grow for an additional 12 days. At the end of the incubation period colonies were counted.
The data is shown in Table 3, below, wherein values represent mean ± standard deviation of duplicate control cultures (no oligonucleotide added) and duplicate experimental cultures from two separate experiments. Colony forming unit-granulocyte macrophage (CFU-GM)-derived colonies consisted of 50 or more cell aggregates, while CFU-GM-derived clusters were defined as aggregates of between 4 and 40 cells. These are normal hematopoietic colonies derived from progenitors with the capability to differentiate along the granulocytic and macrophage lineages. […]

[3] = system: normal hematopoietic progenitor cells (normal bone marrow MNC); assay: CFU-GM colony formation of normal hematopoietic progenitor cells; conditions: Table 3; 40 μg/ml at 0 h, 20 μg/ml 18 h later; 12 days; mean ± SD; control 263 ± 10
Excerpt: as §1

[4] = system: Philadelphia chromosome-positive blast cells of CML patients in blast crisis, L-6 (b2a2) type junction; assay: Colony formation of CML blast crisis patient cells expressing the b2a2 (L-6) junction; conditions: 10 days in semi-solid culture (FIG. 2)
Protocol: Leukemia cells were obtained from the marrow of the posterior iliac crest of five CML patients in blast crisis. The cells were diluted 1:2 in Iscove's modified Dulbecco medium (IMDM) to form a cell suspension. Philadelphia chromosome-positive blast cells were isolated by Ficoll-Hypaque density gradient sedimentation to remove non-mononuclear cells. Accordingly, the bone marrow cell suspension was gently overlayed on a Histopaque density gradient (Sigma Chemical Co., St. Louis, Mo.) in a 2:1 ratio, and then spun down for 30 min. at 1500 rpm and 18° C. Cells remaining in the interface layer after centrifugation were collected using a Pasteur pipet, and washed with IMDM at 1000 rpm and […] for 10 min.
Cells plated into methyl cellulose semisolid media after 7-11 days of culture were recovered from the medium. Total RNA was isolated according to the procedure of Chomczynski et al, Anal. Biochem. 162, 156-159 (1987). The RNA ([…]) isolated from one patient having particularly exuberant cell growth was annealed with the 3' RT-PCR primer GCTTCACACC ATTCCCCATTGT (SEQ ID NO:10) complementary to 22 nucleotides of c-abl exon 2 for 30 minutes at 37° C. Following annealing of the 3' primer, the RNA was reverse transcribed with 500 units of Moloney murine leukemia virus reverse transcriptase at 37° C. for 1 hour. The reaction was stopped and the mixture diluted in 1 x Thermus aquaticus (Taq) polymerase buffer. A 5' primer, the 22 nucleotide oligomer CACAGCATTCCGCTGACCATCA (SEQ ID NO: 11) complementary to bcr exon 2 and additional c-abl exon 2 3' primer were added to a final concentration of 2 ng/μl each with 2.5 units of Taq polymerase for amplification of the cDNA fragments. Sixty cycles of PCR were performed in a Perkin Elmer Thermal Cycler by annealing at 55° C., synthesizing at 72° C. and denaturing at 95° C. The amplification product, corresponding to the b2a2 junction, was thereafter separated on a 2% agarose gel. The band containing the bcr-abl fragment was cut out and cleaned according to a standard technique utilizing a GENE-CLEAN™ kit (Bio 101, Inc.), cloned by blunt end ligation in the BLUESCRIPT SK vector (Stratagene Cloning Systems) linearized by SMA I digestion. Several individual clones were then sequenced using the SEQUENASE™ version 2.0 enzyme (United States Biochemical Corp., Cleveland, Ohio), according to the sequence protocol recommended by the manufacturer. Accordingly, the denatured bcr-abl DNA fragments were annealed with specific primers which flank the cloning site in the BLUESCRIPT SK vector, in the presence of SEQUENASE™ reaction buffer for 15 min. at 37° C. The primer-annealed fragments were incubated at room temperature with SEQUENASE™ version 2.0 enzyme and α-S^35 dAT at 37° C. Subsequently, labelled template-primer complexes were transferred to tubes containing A, T, C and G nucleotides (one nucleotide per tube) and incubated 5-30 min. at 37° C. The samples were then loaded on a previously prepared acrylamide gel, and run for approximately 10 hours. The sequencing gel was dryed, and the film exposed O/N. Sequence analysis of several of the individual clones identified the bcr-abl junction as having the cDNA sequence shown in FIG. 1 (SEQ ID NO:1). The arrow in the figure indicates the bcr-abl breakpoint junction, and the box delineates the 18 nucleotides corresponding to the junction, which forms a preferred target sequence for hybridization of antisense oligomer. The junction corresponds precisely to the L-6 type breakpoint reported by Shtivelman et al., Cell 47, 277 (1986), in which the bcr exon 2 is fused to c-abl exon 2.
In a similar manner, L-6 type junctions were identified in the remaining CML blast crisis patients by hybridization of RT-PCR amplification products derived from blast crisis CML RNA using a synthetic 18-mer GAAGGGCTTC TTCCTTAT (SEQ ID NO:3) specific for the 18-nucleotide target sequence of the L-6 bcr-abl junction. […]

[5] = system: 1:1 mixtures of normal marrow progenitors and CML blast crisis cells; assay: CFU-GM + CFU-L colony formation of 1:1 mixtures of normal marrow progenitors and CML blast crisis cells; conditions: Table 3; 1:1 mixture; 40 μg/ml at 0 h, 20 μg/ml 18 h later; 12 days; mean ± SD; control 978 ± 24
Excerpt: as §1

Substance: SEQ ID NO:2: mismatched (4 nucleotide substitutions) bcr-abl antisense oligomer GAACGGCATC TACGTTAT (antisense GAACGGCATCTACGTTAT; further chemistry not given here) [reference compound]
- morphology of cells isolated from residual colonies [1]: heterogeneous and consisted of blast cells and a variety of differentiating elements
- Colonies or Clusters, CFU-L (colonies formed from CML blast crisis cells) [2]: 786 ± 23 colonies or clusters
- Colonies or Clusters, CFU-GM [3]: 265 ± 6 colonies or clusters
- colonies of blast cells formed [4]: formed numerous colonies of blast cells
- Colonies or Clusters, CFU-GM + CFU-L [5]: 900 ± 46 colonies or clusters
